Results as given in patent US10189863B2, “5,6-dihydro-4H-benzo[b]thieno-[2,3-d]azepine derivatives” (PULMOCIDE LIMITED, priority 2014, dated 2019).

Columns and labels:
[1] = tested on: RSV B Washington strain; test: Assessment of RSV induced CPE in HEp2 cells (RSV B Washington strain); assay type: cell-based; settings: human respiratory syncytial virus, HEp2 cells; for IC50: HEp-2, 144 h, 1 MOI, 6 days, read-out: RSV B CPE IC50; for inhibition at 1 µg/mL: Inhibition (%) at 1 μg/mL, read-out: RSV B CPE % Inhibition
Description: (§1) Assessment of RSV Induced CPE in HEp2 Cells
(§2) HEp2 cells were seeded (10^3/well/50 μL) in 384-well plates (Catalogue number 353962, BD Falcon, Oxford, UK) in […] containing 2 mM L-glutamine and 1 mM sodium pyruvate one day before infection. RSV A2 strain (#0709161v, NCPV, Public Health England, Wiltshire) or RSV B Washington strain (VR-1580, ATCC, Manassas, Va. 20108) virus solutions were prepared in serum free-DMEM with 2 mM L-glutamine and 1 mM sodium pyruvate, and then added (50 μL/well) to achieve a final virus concentration of 1 MOI. Simultaneously test compounds (0.5 μL DMSO solution) were added to 100 μL of HEp2 cell culture with virus solution to provide a final DMSO solution of 0.5%. Plates were incubated (37° C./5% CO2) for 5 days for studies using RSV A2 strain or 6 days for those using RSV B strain, and then resazurin sodium salt (5 μL of 0.03% solution; Sigma-Aldrich, Dorset, UK) was added to each well and the plate incubated for a further 6 hr (37° C./5% CO2). The fluorescence of each well [545 nm (excitation)/590 nm (emission)] was determined using a multi-scanner (Clariostar: BMG, Buckinghamshire, UK). The percentage inhibition for each well was calculated and the IC50, IC75 and IC90 values were calculated from the concentration-response curve generated for each test compound.

[2] = Cell viability: resazurin assay; assay type: cell-based, human; settings: human, HEp2 cells
Description: Cell Viability: Resazurin Assay
HEp2 cells were seeded in 384-well plates (10^3/well/50 μL; BD Falcon Ref 353962) in FBS DMEM (5%, containing 2 mM L-glutamine and 1 mM sodium pyruvate) one day before experimentation. Serum-free DMEM (50 μL) was added to test wells while for control wells the media was removed and sterile water (100 μL) was added. Test compounds (0.5 μL DMSO solution) were added to give a final DMSO concentration of 0.5%. Hep2 cells were incubated with each test compound for 5 days (37° C./5% CO2 in 5% FBS) and then resazurin stock solution (5 μL; 0.03%) was added to each well and the plate incubated for a further 6 hr (37° C./5% CO2). The fluorescence of each well at 545 nm (excitation) and 590 nm (emission) was determined using a multi-scanner (Clariostar: BMG Labtech). The percentage loss of cell viability was calculated for each well relative to vehicle (0.5% DMSO) treatment.
Any apparent increase in cell viability associated with test compound treatment relative to vehicle is consequently tabulated as a negative percentage. Where appropriate, a CC50 value was calculated from the concentration-response curve generated from the concentration-response curve for each test compound.

[3] = tested on: RSV A2 strain; test: Assessment of RSV induced CPE in HEp2 cells (RSV A2 strain); assay type: cell-based; settings: human respiratory syncytial virus, HEp2 cells; for IC50: HEp-2, 120 h, 1 MOI, 5 days, read-out: RSV A2 CPE IC50; for inhibition at 0.1 µg/mL / inhibition at 0.01 µg/mL: HEp-2; for inhibition at 0.1 µg/mL: Inhibition (%) at 0.1 μg/mL, read-out: RSV A2 CPE % Inhibition; for inhibition at 0.01 µg/mL: Inhibition (%) at 0.01 μg/mL
Description: as §1, §2

Structure (SMILES) | IC50 [1] [nM] | IC50 [3] [nM] | inhibition at 1 µg/mL ([1]; HEp-2) [%] | CC50 at 5 days [2] [µM] | inhibition at 0.1 µg/mL [3] [%] | inhibition at 0.1 µg/mL ([1]; HEp-2, Inhibition (%) at 0.1 μg/mL) [%] | inhibition at 0.01 µg/mL [3] [%]
Cc1ccccc1NC(=O)c1cc2c(s1)-c1ccccc1N(C(=O)c1ccc(NC(=O)c3cc(C)c(C)nc3N3CC4(CCOCC4)C3)cc1)CC2 [Example 42, 6-(4-(5,6-dimethyl-2-(7-oxa-2-azaspiro[3.5]nonan-2-yl)nicotinamido)benzoyl)-N-(o-tolyl)-5,6-dihydro-4H-benzo[b] thieno[2,3-d]azepine-2-carboxamide] | 60.5 | 0.14 | 80 | > 14 | 97 | – | –
Cc1cc(C(=O)Nc2ccc(C(=O)N3CCc4cc(C(=O)Nc5c(C)cccc5F)sc4-c4ccccc43)cc2)c(N2CC3(CCOCC3)C2)nc1C [Example 44, 6-(4-(5,6-dimethyl-2-(7-oxa-2-azaspiro[3.5]nonan-2-yl)nicotinamido)benzoyl)-N-(2-fluoro-6-methylphenyl)-5,6-dihydro-4H-benzo[b]thieno[2,3-d]azepine-2-carboxamide] | 16.2 | 0.13 | 76 | > 13.7 | 100 | – | –
Cc1cc(C(=O)Nc2ccc(C(=O)N3CCc4cc(C(=O)Nc5ccc(F)cc5F)sc4-c4ccccc43)cc2)c(N2CC3(CCOCC3)C2)nc1C [Example 45, N-(2,4-difluorophenyl)-6-(4-(5,6-dimethyl-2-(7-oxa-2-azaspiro[3.5]nonan-2-yl)nicotinamido)benzoyl)-5,6-dihydro-4H-benzo[b]thieno[2,3-d]azepine-2-carboxamide] | 84 | 0.11 | 68 | > 13.6 | 100 | – | –
Cc1cc(C(=O)Nc2ccc(C(=O)N3CCc4cc(C(=O)Nc5c(F)cccc5Cl)sc4-c4ccccc43)cc2)c(N2CC3(CCOCC3)C2)nc1C [Example 46, N-(2-chloro-6-fluorophenyl)-6-(4-(5,6-dimethyl-2-(7-oxa-2-azaspiro[3.5]nonan-2-yl)nicotinamido)benzoyl)-5,6-di-hydro-4H-benzo[b]thieno[2,3-d]azepine-2-carboxamide] | 7 | 0.069 | 86 | > 13.3 | 100 | – | –
Cc1cnc(N2CC3(CCOCC3)C2)c(C(=O)Nc2ccc(C(=O)N3CCc4cc(C(=O)Nc5c(F)cc(F)cc5F)sc4-c4ccccc43)cc2)c1 [Example 48, 6-(4-(5-methyl-2-(7-oxa-2-azaspiro[3.5]nonan-2-yl)nicotinamido)benzoyl)-N-(2,4,6-trifluorophenyl)-5,6-dihydro-4H-benzo[b]thieno[2,3-d]azepine-2-carboxamide] | 1.5 | 0.14 | 100 | > 13.6 | 100 | – | –

Second part, led by results:

IC50 [1] [nM] | IC50 [3] [nM] | Structure (SMILES) | inhibition at 1 µg/mL ([1]; HEp-2) [%] | CC50 at 5 days [2] [µM] | inhibition at 0.1 µg/mL [3] [%] | inhibition at 0.1 µg/mL ([1]; HEp-2, Inhibition (%) at 0.1 μg/mL) [%] | inhibition at 0.01 µg/mL [3] [%]
59.4 | 0.12 | Cc1cc(C(=O)Nc2ccc(C(=O)N3CCc4cc(C(=O)Nc5ccccc5F)sc4-c4ccccc43)cc2)c(N2CC3(CCOCC3)C2)nc1C [Example 43, 6-(4-(5,6-dimethyl-2-(7-oxa-2-azaspiro[3.5]nonan-2-yl)nicotinamido)benzoyl)-N-(2-fluorophenyl)-5,6-dihydro-4H-benzo[b]thieno[2,3-d]azepine-2-carboxamide] | 72 | > 14 | 100 | – | –
5.7 | 0.13 | Cc1cnc(N2CC3(CCOCC3)C2)c(C(=O)Nc2ccc(C(=O)N3CCc4cc(C(=O)Nc5c(F)cccc5F)sc4-c4ccccc43)cc2)c1 [Example 47, N-(2,6-difluorophenyl)-6-(4-(5-methyl-2-(7-oxa-2-aza-spiro[3.5]nonan-2-yl)nicotinamido)benzoyl)-5,6-dihydro-4H-benzo[b]thieno[2,3-d]azepine-2-carboxamide] | – | > 13.9 | – | 100 | 100
1.3 | 0.13 | Cc1ccc(C(=O)Nc2ccc(C(=O)N3CCc4cc(C(=O)Nc5c(F)cccc5F)sc4-c4ccccc43)cc2)c(N2CC3(CCOCC3)C2)n1 [Example 49, N-(2,6-difluorophenyl)-6-(4-(6-methyl-2-(7-oxa-2-aza-spiro[3.5]nonan-2-yl)nicotinamido)benzoyl)-5,6-dihydro-4H-benzo[b]thieno[2,3-d]azepine-2-carboxamide] | 100 | > 13.9 | 100 | – | –
1.7 | 0.13 | Cc1ccc(C(=O)Nc2ccc(C(=O)N3CCc4cc(C(=O)Nc5c(F)cc(F)cc5F)sc4-c4ccccc43)cc2)c(N2CC3(CCOCC3)C2)n1 [Example 50, 6-(4-(6-methyl-2-(7-oxa-2-azaspiro[3.5]nonan-2-yl)nicotinamido)benzoyl)-N-(2,4,6-trifluorophenyl)-5,6-dihydro-4H-benzo[b]thieno[2,3-d]azepine-2-carboxamide] | 100 | > 13.6 | 100 | – | –
10.1 | 1.1 | Cc1cnc(N2CC3(CCOCC3)C2)c(C(=O)Nc2ccc(C(=O)N3CCc4cc(C(=O)Nc5c(F)cccc5C#N)sc4-c4ccccc43)cc2)c1 [Example 51, N-(2-cyano-6-fluorophenyl)-6-(4-(5-methyl-2-(7-oxa-2-azaspiro[3.5]nonan-2-yl)nicotinamido)benzoyl)-5,6-dihydro-4H-benzo[b]thieno[2,3-d]azepine-2-carboxamide] | 99 | > 13.8 | 98 | – | –
3.3 | 0.067 | Cc1cnc(N2CC3(CCOCC3)C2)c(C(=O)Nc2ccc(C(=O)N3CCc4cc(C(=O)Nc5c(O)cccc5F)sc4-c4ccccc43)cc2)c1 [Example 52, N-(2-fluoro-6-hydroxyphenyl)-6-(4-(5-methyl-2-(7-oxa-2-azaspiro[3.5]nonan-2-yl)nicotinamido)benzoyl)-5,6-dihydro-4H-benzo[b]thieno[2,3-d]azepine-2-carboxamide] | 100 | > 13.9 | 96 | – | –
14.6 | 0.23 | COc1cccc(F)c1NC(=O)c1cc2c(s1)-c1ccccc1N(C(=O)c1ccc(NC(=O)c3cc(C)cnc3N3CC4(CCOCC4)C3)cc1)CC2 [Example 53, N-(2-fluoro-6-methoxyphenyl)-6-(4-(5-methyl-2-(7-oxa-2-azaspiro[3.5]nonan-2-yl)nicotinamido)benzoyl)-5,6-di-hydro-4H-benzo[b]thieno[2,3-d]azepine-2-carboxamide] | 96 | > 13.7 | 94 | – | –
89.8 | 1.5 | Cc1cnc(N2CC3(CCOCC3)C2)c(C(=O)Nc2ccc(C(=O)N3CCc4cc(C(=O)Nc5c(F)cccc5OCCO)sc4-c4ccccc43)cc2)c1 [Example 54, N-(2-fluoro-6-(2-hydroxyethoxy)phenyl)-6-(4-(5-methyl-2-(7-oxa-2-azaspiro[3.5]nonan-2-yl)nicotinamido)benzoyl)-5,6-dihydro-4H-benzo[b]thieno[2,3-d]azepine-2-carboxamide] | 100 | > 13.1 | – | – | 100
